Assay results taken from ChEMBL document CHEMBL1201862, “PubChem BioAssay data set” (2004).
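These data come from cells grown in 96-well plates and exposed to compound for 48 hours at five concentrations. GI50 = concentration required for 50% inhibition of growth.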 Activity calls are given as the source filed them. Rule as the data show it: active = GI50 up to about 1.1 µM and inactive = higher.

How the values were obtained:
Test in all cases: inhibition of tumour cell growth, NCI panel, 48 h
NCI/ADR-RES = test system: NCI/ADR-RES
HL-60 = test system: HL-60
SNB-19 = test system: SNB-19
UO-31 = test system: UO-31
SN12C = test system: SN12C
NCI-H460 = test system: NCI-H460
ACHN = test system: ACHN
UACC-62 = test system: UACC-62
A498 = test system: A498
MOLT-4 = test system: MOLT-4
KM12 = test system: KM12
TK-10 = test system: TK-10
CAKI-1 = test system: CAKI-1
SNB-75 = test system: SNB-75
SF-295 = test system: SF-295
LOX IMVI = test system: LOX IMVI
OVCAR-5 = test system: OVCAR-5
HT-29 = test system: HT-29
U-251 = test system: U-251
MDA-MB-231 = test system: MDA-MB-231
HCC 2998 = test system: HCC 2998
Malme-3M = test system: Malme-3M
SK-MEL-28 = test system: SK-MEL-28
UACC-257 = test system: UACC-257
SK-MEL-2 = test system: SK-MEL-2
OVCAR-3 = test system: OVCAR-3
NCI-H226 = test system: NCI-H226
CCRF-CEM = test system: CCRF-CEM
SF-268 = test system: SF-268
OVCAR-8 = test system: OVCAR-8
K562 = test system: K562
DU-145 = test system: DU-145
NCI-H23 = test system: NCI-H23
T47D = test system: T47D
SK-OV-3 = test system: SK-OV-3
SF-539 = test system: SF-539
HCT-15 = test system: HCT-15
786-0 = test system: 786-0
SW-620 = test system: SW-620
IGROV-1 = test system: IGROV-1
MDA-MB-435 = test system: MDA-MB-435
PC-3 = test system: PC-3
SR = test system: SR
M14 = test system: M14
A549 = test system: A549
EKVX = test system: EKVX
MDA-N = test system: MDA-N
BT-549 = test system: BT-549
NCI-H522 = test system: NCI-H522
Hs-578T = test system: Hs-578T
SK-MEL-5 = test system: SK-MEL-5
MCF7 = test system: MCF7
COLO 205 = test system: COLO 205
HOP-62 = test system: HOP-62
HCT-116 = test system: HCT-116
RPMI-8226 = test system: RPMI-8226
RXF 393 = test system: RXF 393
OVCAR-4 = test system: OVCAR-4

Measured: GI50

CONC(C)=O
inactive: NCI/ADR-RES > 100 µM | HL-60 > 100 µM | SNB-19 > 100 µM | UO-31 > 100 µM | SN12C > 100 µM | NCI-H460 > 100 µM | ACHN > 100 µM | UACC-62 > 100 µM | A498 > 100 µM | MOLT-4 > 100 µM | KM12 > 100 µM | TK-10 > 100 µM | CAKI-1 > 100 µM | SNB-75 > 100 µM | SF-295 > 100 µM | LOX IMVI > 100 µM | OVCAR-5 > 100 µM | HT-29 > 100 µM | U-251 > 100 µM | MDA-MB-231 > 100 µM | HCC 2998 > 100 µM | Malme-3M > 100 µM | SK-MEL-28 > 100 µM | UACC-257 > 100 µM | SK-MEL-2 > 100 µM | OVCAR-3 > 100 µM | NCI-H226 > 100 µM | CCRF-CEM > 100 µM | SF-268 > 100 µM | OVCAR-8 > 100 µM | K562 > 100 µM | DU-145 > 100 µM | NCI-H23 > 100 µM | T47D > 100 µM | SK-OV-3 > 100 µM | SF-539 > 100 µM | 786-0 > 100 µM | SW-620 > 100 µM | IGROV-1 > 100 µM | MDA-MB-435 > 100 µM | PC-3 > 100 µM | SR > 100 µM | M14 > 100 µM | A549 > 100 µM | EKVX > 100 µM | MDA-N > 100 µM | BT-549 > 100 µM | NCI-H522 > 100 µM | Hs-578T > 100 µM | SK-MEL-5 > 100 µM | MCF7 > 100 µM | COLO 205 > 100 µM | HOP-62 > 100 µM | HCT-116 > 100 µM | RPMI-8226 > 100 µM
> 100 µM: HCT-15

CCOC(=O)C(Cc1cn(S(=O)(=O)c2ccc(C)cc2)cn1)P(=O)(OCC)OCC (stereo not drawn)
inactive: NCI/ADR-RES > 100 µM | HL-60 > 100 µM | SNB-19 > 100 µM | UO-31 > 100 µM | SN12C > 100 µM | NCI-H460 > 100 µM | ACHN > 100 µM | UACC-62 > 100 µM | MOLT-4 > 100 µM | KM12 > 100 µM | TK-10 > 100 µM | CAKI-1 > 100 µM | SNB-75 > 100 µM | SF-295 > 100 µM | LOX IMVI > 100 µM | OVCAR-5 > 100 µM | HT-29 > 100 µM | U-251 > 100 µM | MDA-MB-231 > 100 µM | HCC 2998 > 100 µM | Malme-3M > 100 µM | SK-MEL-28 > 100 µM | UACC-257 > 100 µM | SK-MEL-2 > 100 µM | OVCAR-3 > 100 µM | NCI-H226 > 100 µM | CCRF-CEM > 100 µM | SF-268 > 100 µM | OVCAR-8 > 100 µM | K562 > 100 µM | DU-145 > 100 µM | NCI-H23 > 100 µM | RXF 393 > 100 µM | T47D > 100 µM | SK-OV-3 > 100 µM | SF-539 > 100 µM | 786-0 > 100 µM | SW-620 > 100 µM | OVCAR-4 > 100 µM | IGROV-1 > 100 µM | MDA-MB-435 > 100 µM | PC-3 > 100 µM | SR > 100 µM | M14 > 100 µM | A549 > 100 µM | EKVX > 100 µM | MDA-N > 100 µM | BT-549 > 100 µM | NCI-H522 > 100 µM | Hs-578T > 100 µM | SK-MEL-5 > 100 µM | MCF7 > 100 µM | COLO 205 > 100 µM | HOP-62 > 100 µM | HCT-116 > 100 µM | RPMI-8226 > 100 µM
> 100 µM: HCT-15

O=C1c2sc(-c3ccc(F)cc3)cc2-n2cccc21
51.3 µM: HCT-15
inactive: NCI/ADR-RES 31.2 µM | SNB-19 16.7 µM | UO-31 22.5 µM | SN12C 19.4 µM | NCI-H460 24.9 µM | ACHN 29.9 µM | UACC-62 28.3 µM | A498 23.3 µM | MOLT-4 21.4 µM | KM12 26.4 µM | TK-10 21.9 µM | CAKI-1 17.1 µM | SNB-75 18.4 µM | SF-295 25.1 µM | LOX IMVI 32.1 µM | OVCAR-5 > 100 µM | HT-29 25.2 µM | U-251 16.4 µM | MDA-MB-231 22.2 µM | HCC 2998 29.2 µM | Malme-3M 77.3 µM | SK-MEL-28 69.8 µM | UACC-257 47.5 µM | SK-MEL-2 > 100 µM | OVCAR-3 32.8 µM | NCI-H226 24.4 µM | CCRF-CEM 28.5 µM | SF-268 19.9 µM | OVCAR-8 27.6 µM | K562 10.2 µM | DU-145 24.6 µM | RXF 393 23.5 µM | T47D 12.8 µM | SK-OV-3 28.2 µM | 786-0 16.9 µM | SW-620 47.6 µM | OVCAR-4 28.1 µM | IGROV-1 8.39 µM | MDA-MB-435 31.4 µM | PC-3 37.2 µM | SR 17.8 µM | M14 38.1 µM | A549 26 µM | EKVX 1.89 µM | MDA-N 25.8 µM | BT-549 34 µM | NCI-H522 34.8 µM | Hs-578T 19.7 µM | SK-MEL-5 38.5 µM | MCF7 24.5 µM | COLO 205 48 µM | HOP-62 17 µM | HCT-116 18.4 µM | RPMI-8226 23.3 µM
